The structures appear in SMILES notation. Peptide text beside a SMILES is read from it. * marks the point of attachment. Cbz = O=C(OCc1ccccc1)*

We go through three compounds from patent US9572788B2, “Cell permeable inhibitors of anaphase promoting complex” (President and Fellows of Harvard College, priority 2014, dated 2017).

Assay type in all cases: cell-based, human
Assay [1] deals with HeLa H2B-GFP cells. Kind of assay: Chromosome congression analysis. Here is the method:
HeLa H2B-GFP cells were plated in 35 mm glass-bottom dishes (MatTek) in DMEM+10% FBS at 20% confluence one day prior to the experiment and synchronized by double thymidine block as described above. Drugs were added as follows to a final volume of 3 ml from 2× concentrated preparation in culture medium. DMSO (0.06%), proTAME (3 and 12 μM) or 10 nM Nocodazole were added 8 h after release from the second block, while MG132 (10 μM) was added at 10 h. H2B-GFP was imaged for 4 hrs every 3 min at 40× magnification as described above.

For assay [2], the system named is HeLa H2B-GFP cells. Description: Live cell imaging of mitotic duration and cell fate. Here is the method: Detailed siRNA transfection and drug treatment schemes are described in supplemental experimental procedures. HeLa H2B-GFP cells were plated in DMEM with 10% FBS at 20% confluence. […] Live cell imaging was performed at 12 minute intervals on a Nikon TE2000E PFS inverted microscope fitted with an incubation chamber maintained at 37° C. and supplied with 5% CO2. Cell division was tracked by manual inspection of movies, and mitotic duration was measured as the time between the first frame of chromosome condensation and the frame of chromosome segregation (anaphase), decondensation (mitotic exit without anaphase) or cell death (chromosomes shrinking to a small bright dot).
The imaging plate was mounted onto a motorized stage (Prior ProScan II) on a Nikon TE2000E PFS inverted microscope fitted with an incubation chamber maintained at 37° C. and supplied with 5% CO2. A 20× Plan Apo 0.75 NA or 40× Plan Fluor 0.75 NA objective lens was used as indicated and images were collected with 2×2 binning. […] TIFF files of each image were exported from Elements and used to build stacks and Quicktime movies with Metamorph imaging software (Molecular Devices). For manual analysis, mitotic duration is counted as the time between the first frame of chromosome condensation and the frame of chromosome segregation (anaphase) or decondensation (mitotic exit in the presence of nocodazole) or cell death (chromosomes shrinking to a small bright dot).
HeLa H2B-GFP cells were plated in a 24-well plate in DMEM 10% FBS at 20% confluence one day prior to experiment and synchronized by double thymidine block as described above. […] Live cell imaging was set up as described above.
HeLa H2B-GFP cells were plated in a 24-well plate in DMEM+10% FBS at 20% confluence one day prior to the experiment and synchronized by double thymidine block as described above. The cells were released from the first thymidine block into 200 μl OptiMem without FBS. Transfection was performed immediately after the first thymidine release. […] The two mixtures were left at room temperature for 5 min before being mixed together and incubated for additional 20 min and then added to the cells to a final volume of 250 μl. 4 h after transfection, 250 μl of DMEM+20% FBS were added to cells.
HeLa H2B-GFP cells were plated in glass-bottom 24-well plates at 20% confluence one day prior to the experiment and synchronized by double thymidine block as described above. […] Cells were treated with 100 nM Hesperadin or DMSO 8 h after release from the second thymidine block and live cell imaging was set up as described above.
HeLa H2B-GFP cells were plated in a 24-well plate in DMEM+10% FBS at 20% confluence one day prior to experiment and synchronized by double thymidine block as synchronized above. […] Live cell imaging was set up as described above.
HeLa H2B-GFP cells were plated in a 24-well plate in DMEM+10% FBS at 20% confluence one day prior to experiment and synchronized by double thymidine block as described above. […] Untreated cells were used as the control. Live cell imaging was set up as described above. […] Alternatively, at 10 h after release from the second block, 10 μM MG132 with or without 25 μg/ml cycloheximide was added to the cells. […] Live cell imaging was set up as described above.
HeLa H2B-GFP cells were plated in a 24-well plate in DMEM+10% FBS at 20% confluence one day prior to experiment and synchronized by double thymidine block as described above. Mad2 siRNA transfection was performed as described above. At 10 h after release from the second block, 10 μM MG132 with or without 25 μg/ml cycloheximide was added to the cells. Live cell imaging was set up as described above. Manual analysis was focused only on cells that entered mitosis after MG132 addition.
Live cell imaging experiments. […] Nocodazole, taxol, proTAME, cyclinal and hesperadin were added to cells at 8 h after release. MG132 was added to cells at 10 h after release to allow mitotic entry.

Another assay relates to HeLa cells. Description: Immunofluorescence of mitotic spindle and interkinetochore distance. As to conditions: asynchronous HeLa, 2 h; 12 μM proTAME; nocodazole or taxol. Here is the method: HeLa cells grown in DMEM+10% FBS were plated on 25 mm glass coverslips in a E-well dish at a density of 130,000/ml×3 ml 48 h prior to treatment. They were then treated with 0.06% DMSO, 12 μM proTAME, 300 nM nocodazole or 300 nM taxol for 2 h. The cells were washed twice with PBS and fixed with 3% paraformaldehyde for 15 min. The cells were then washed with PBS and permeabilized with PBS plus 0.5% Triton X-100 for 2 min. The cells were then washed with PBS and blocked with PBS plus 5% FBS for 1 h. CREST antisera diluted 1:50 into PBS was added to the cells and incubated at room temperature for 1 h. The cells were washed with PBS and incubated with 1:1000 anti-human-Alexa 568 (Invitrogen, A21090) and 1:100 anti-α-tubulin-FITC for 1 h. The cells were then washed with PBS and the nuclei were stained with 1 μg/ml Hoechst 33342. The cover slips were mounted in 0.1M N-propylgallate in 9:1 glycerol:PBS. Z-series images were taken on a Nikon TE2000 microscope with PerkinElmer spinning disk confocal device. Maximal Z-projection images of individual cells were made by Image J. To measure interkinetochore distances, a straight line was drawn across a kinetochore pair in the same confocal plane and pixel intensities along the line were plotted so that each kinetochore would be represented by a peak on the line. The interkinetochore distance was calculated as the distance between the peaks. Fifty-five kinetochore pairs from 5 cells treated with DMSO or proTAME were measured and the p-value was calculated with a paired student test.

[3] abbreviates: Fig S4C, proTAME 12 μM, MG132 10 μM, nocodazole 10 nM.
Setting [4] is: Fig 7A, control siRNA, 3 μM MG132.
Where [5] appears, read: Fig 7B, MG132 3 μM, 100 nM hesperadin, 12 μM proTAME.
[6] abbreviates: Fig 7D, MG132 10 μM, 100 nM hesperadin, 12 μM proTAME.
The mark [7] stands for this setting: Fig 8B, MAD2 siRNA, MG132 10 μM ± 25 μg/ml cycloheximide.
[8] abbreviates: Fig 8B, control siRNA, MG132 10 μM ± 25 μg/ml cycloheximide.
Where [9] appears, read: Fig 6C, compounds 8 h after release, 12 μM proTAME, 300 nM nocodazole, 150 nM taxol, 100 nM hesperadin.
[10] abbreviates: Fig 8A, 12 μM proTAME, 300 nM nocodazole or 150 nM taxol, ± 25 μg/ml cycloheximide 4 h later.
Where [11] appears, read: Fig 6D, Cdc27 siRNA, 100 nM hesperadin.
Where [12] appears, read: Fig 6D, UbcH10 siRNA, 100 nM hesperadin.
The mark [13] stands for this setting: Fig 6D, control siRNA, 100 nM hesperadin.

Turning to `CC(C)C[C@@H](C=O)NC(=O)[C@H](CC(C)C)NC(=O)[C@H](CC(C)C)NC(=O)OCc1ccccc1` [MG132, reference compound] (Cbz-Leu-Leu-Leu-aldehyde), in the assay with HeLa H2B-GFP cells [1] (3 μM proTAME or 10 μM MG132), the “Delay in chromosome congression” value is given as “caused no delay in chromosome congression”. For the same compound, in the assay on HeLa H2B-GFP cells [1] (setting [3]), the “Average chromosome congression time” value stood at 21.6 min. In the assay with HeLa H2B-GFP cells [1] (setting [3]), the “Median chromosome congression time” value is 21 min. Besides, in the assay on HeLa H2B-GFP cells [2] (3 μM), the “Median duration of mitotic arrest” value is 15 h. For the same compound, the “Cells that exited mitosis” value with HeLa H2B-GFP cells [2] (3 μM, 30 h experiment) came to 10%; with HeLa H2B-GFP cells [2] (3 μM, cells depleted of Mad2 by RNAi), 50%. For the same compound, the “Response of arrested cells to roscovitine” value with HeLa H2B-GFP cells [2] (100 μM roscovitine at 12 h after release) is given as “showed complete resistance to roscovitine”. Further, the Average mitotic duration with HeLa H2B-GFP cells [2] (Fig 7A, MAD2 siRNA, 3 μM MG132) is 605.3 min; in the assay with HeLa H2B-GFP cells [2] (setting [4]), 830.1 min; in the assay with HeLa H2B-GFP cells [2] (setting [5]), 1549.9 min; in the assay on HeLa H2B-GFP cells [2] (setting [6]), 2169.8 min; with HeLa H2B-GFP cells [2] (setting [7]), 1755.2 min; with HeLa H2B-GFP cells [2] (setting [8]), 1715.1 min. Further, the Median mitotic duration with HeLa H2B-GFP cells [2] (Fig 7A, MAD2 siRNA, 3 μM MG132) is on record as 667.5 min; with HeLa H2B-GFP cells [2] (setting [4]), 840 min; with HeLa H2B-GFP cells [2] (setting [5]) it was 1440 min; in the assay with HeLa H2B-GFP cells [2] (setting [6]), 2172 min; with HeLa H2B-GFP cells [2] (setting [7]), 1716 min; in the assay on HeLa H2B-GFP cells [2] (setting [8]), 1614 min. Besides, the “Time normal-appearing metaphase plate maintained” value with HeLa H2B-GFP cells [2] (MG132 alone) is “over 5 h”. The Median mitotic delay/arrest in the assay on HeLa H2B-GFP cells [2] (synchronized, drugs 10 hrs after release, proTAME 3 μM, low-dose MG132) is listed as 276 min.

`CC(=O)O[C@H]1C(=O)[C@@]2(C)[C@H]([C@H](OC(=O)c3ccccc3)[C@]3(O)C[C@H](OC(=O)[C@H](O)[C@@H](NC(=O)c4ccccc4)c4ccccc4)C(C)=C1C3(C)C)[C@]1(OC(C)=O)CO[C@@H]1C[C@@H]2O` [Taxol, reference compound]: the Average mitotic duration was determined as 1946.9 min with HeLa H2B-GFP cells [2] (setting [9]) and 1557.6 min with HeLa H2B-GFP cells [2] (setting [10]). The Median mitotic duration with HeLa H2B-GFP cells [2] (setting [9]) amounted to 2070 min; with HeLa H2B-GFP cells [2] (setting [10]), 1602 min; in the assay on HeLa H2B-GFP cells [2] (unsynchronized HeLa H2B-GFP, taxol 10 nM, proTAME 3 μM, control 60 min) it was 414 min. Further, in the assay with HeLa cells, the “Effect on mitotic spindle” value is given as “strongly perturbed spindle organization”.

Consider `CCS(=O)(=O)Nc1ccc2c(c1)/C(=C(/Nc1ccc(CN3CCCCC3)cc1)c1ccccc1)C(=O)N2` [Hesperadin, reference compound], for which the Average mitotic duration in the assay on HeLa H2B-GFP cells [2] (setting [9]) is reported as 98.7 min; in the assay on HeLa H2B-GFP cells [2] (setting [11]), 131.8 min; with HeLa H2B-GFP cells [2] (setting [12]), 115.8 min; in the assay on HeLa H2B-GFP cells [2] (setting [13]), 115.6 min. Also, the Median mitotic duration in the assay on HeLa H2B-GFP cells [2] (setting [9]) is 96 min; in the assay with HeLa H2B-GFP cells [2] (setting [11]), 132 min; with HeLa H2B-GFP cells [2] (setting [12]), 108 min; in the assay on HeLa H2B-GFP cells [2] (setting [13]), 120 min. Also, the “Mitotic duration in the presence of taxol” value in the assay with HeLa H2B-GFP cells [2] (co-treated with taxol) was approximately 2 h.
